# Measured values from paper PMC6788984, “High-potency ligands for DREADD imaging and activation in rodents and monkeys” (Nature Communications, 2019).
# Biological target: T1, hM4Di (Homo sapiens, UniProt P08173, A203G/Y113C)
# T1 sequence (P08173 1-479 Y113C/A203G): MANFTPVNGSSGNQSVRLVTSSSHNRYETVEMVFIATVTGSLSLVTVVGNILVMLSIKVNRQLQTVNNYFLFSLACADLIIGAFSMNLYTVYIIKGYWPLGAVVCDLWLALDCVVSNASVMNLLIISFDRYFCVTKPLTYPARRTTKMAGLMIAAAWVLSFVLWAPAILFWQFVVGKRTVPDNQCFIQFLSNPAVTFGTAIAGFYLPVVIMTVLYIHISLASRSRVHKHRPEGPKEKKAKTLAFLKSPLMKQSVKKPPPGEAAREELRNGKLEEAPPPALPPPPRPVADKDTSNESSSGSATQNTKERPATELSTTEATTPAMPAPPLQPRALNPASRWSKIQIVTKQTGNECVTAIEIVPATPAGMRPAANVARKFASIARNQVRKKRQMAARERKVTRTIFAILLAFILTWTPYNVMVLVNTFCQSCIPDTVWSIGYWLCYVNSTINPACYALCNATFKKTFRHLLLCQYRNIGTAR
# Assay: In vivo electrophysiology: ChrimsonR light-evoked responses in LA of mice expressing hM4Di in MGM terminals
# Design: 026219; host or cells: mouse brain, dopamine D1 receptor-expressing neurons (transgene); species or system mouse
# Conditions: 0.1 mg kg-1 IP
# Protocol: Mice were purchased from Janvier Labs and stored in grouped cages (maximun 4 per cage) with ad libitum access to food and water, and in a 12 h light/dark cycle (lights on at 7:00 a.m.). All the experiments were performed in accordance to the national Danish law for the use of laboratory animals and approved by local authorities.
# For AAV injection, mice were anaesthetized with Isoflurane and placed in a stereotaxic holder (Narishige, Japan). A trephine hole was drilled above the MGM (from bregma, AP 3.1 mm, ML 1.8 mm). Several injections of a mixture of ssAAV-8/2-hSyn1-hM4D(Gi)_mCherry-WPRE-hGHp(A) and ssAAV-8/2-hSyn1-oChIEF_ChrimsonR_mCitrine-WPRE-SV40pA (in a 1:4 viral particle ratio) were performed sequentially in different locations (AP 3.05 mm, ML 1.75 mm, DV 3.2 and 3.5 mm; second location AP 3.2 mm, ML 1.85 mm, DV 3.3 and 3.6 mm) so that a total of 4 injections of 0.5 µL were made to distribute the virus evenly through the desired location. Injections were made using a pressurized picospritzer and a pulled glass pipette. After viral injection, animals were kept for 4 weeks to ensure maximum virus expression through axon terminals.
# For recording experiments, animals were anesthetized with […] urethane (i.p.), injected with 0.1 ml lidocaine (s.c.) in the incision points, and placed in a stereotaxic holder (Narishige, Japan). A trephine was drilled above the LA (from bregma, AP 1.5 mm, ML 3.1 mm) and the 32 channel opto-electrode was lowered whilst stimulating until a maximum response was located (DV 4 ± 0.2 mm). Body temperature was maintained constant at 37 °C through a feedback-regulated heating pad. Before recording, tissue was left for 10–20 mins for accommodation. Input–output test curves were recorded for both intensity and pulse length 30 min before and 1 h after drug injections using 1 ms-long pulses at 0.33 Hz (450 nm, 110 mA light intensity, ~14 mW, see Supplementary Fig. 10 Panel A). […]
smiles,measurement,setting,value
"CCN1CCN(C2=Nc3cc(Cl)ccc3Nc3c(F)cccc32)CC1 [JHU37160, 8-Chloro-11-(4-ethylpiperazin-1-yl)-4-fluoro-5H-dibenzo[b,e][1,4]diazepine]","light-evoked response, % of baseline (maximal inhibition)",30 min after injection,19 ± 2 % of baseline
same,inhibition of ChrimsonR-induced terminal activation,~10 min,60%
same,"light-evoked response, % of baseline",~10 min,36 ± 9 % of baseline
